Test results as given in patent publication US7872067B2, “Amphiphilic polymer compositions and their use” (priority 2004, dated 2011).
Converted amounts (≈) assume the structure as drawn.

Experiment: Solubility of active compounds in distilled water

Fc1ccc([C@]2(Cn3cncn3)O[C@H]2c2ccccc2Cl)cc1 (racemic) [epoxyconazole]
Solubility in distilled water: 6.63 µg/mL (≈ 20.1 µM)
